Measured values published in US11865128B2, “Aminoglycosides and uses thereof in treating genetic disorders” (Technion Research & Development Foundation Limited, priority 2010, dated 2024).
Converted amounts (≈) assume the structure as drawn. “Also recorded” adds a separate entry of the source. Like-named read-outs stand apart in the source and are kept apart here. Blank lines part the entries; values can stand above or below the molecule they belong to.

Key:
[1] = Cell toxicity LC50 in HEK-293 cells; assay type: cell-based; details: human
Description: (§1) In order to ensure suitable cell viability for each of the tested compounds at the concentrations tested, cell toxicity was evaluated for each compound by measuring the half-maximal-lethal concentration value (LC50 values) in HEK-293 and HFF (human foreskin fibroblasts) cells.
(§2) The percentages of cell viability were calculated as the ratio between the numbers of living cells in cultures grown in the presence of the tested compounds, versus cultures grown under the identical protocol but without the tested compound. The results represent averages of at least three independent experiments.
(§3) The half-maximal lethal concentration (LC50) values were obtained from fitting concentration-response curves to the data of at least three independent experiments, using GraFit 5 software.

[2] = target: Prokaryotic system (prokaryotic ribosome); experiment: Prokaryotic translation inhibition, coupled transcription/translation, luciferase detection; assay type: biochemical
Description: Prokaryotic and eukaryotic translation inhibition was quantified in coupled transcription/translation assays by using active luciferase detection, performed as described hereinabove. […] All the experiments were performed in duplicates and analogous results were obtained in three different experiments. In all biological tests, all tested aminoglycosides were in their sulfate salt forms. The concentrations reported refer to that of the free amine form of each aminoglycoside.
(§4) In all biological experiments conducted, all tested aminoglycosides were in their sulfate salt forms. The concentrations reported in Table 3 refer to that of the free amine form of each aminoglycoside. Prokaryotic and eukaryotic translation inhibition was quantified in coupled transcription/translation assays as previously described. The half-maximal concentration (IC50) values were obtained from fitting concentration response curves to the data of at least three independent experiments, using GraFit 5 software. All the experiments were performed in duplicates and analogous results were obtained in three different experiments.

[3] = Cell toxicity LC50 in HFF cells; assay type: cell-based; details: human
Description: as §1, §2, §3

[4] = tested on: B. subtilis ATCC6633; experiment: Antibacterial activity MIC, double-microdilution; assay type: cell-based, Bacillus subtilis; details: read-out: Antibacterial activity MIC B. subtilis ATCC6633
[5] = target: Eukaryotic system (eukaryotic cytoplasmic ribosome); experiment: Eukaryotic translation inhibition, coupled transcription/translation, luciferase detection; assay type: biochemical; details: for Prokaryotic versus Eukaryotic selectivity IC50^Euk/IC50^Pro: ratio of eukaryotic to prokaryotic translation inhibition IC50; for more specific to the eukaryotic ribosome than parent (NB30 or NB54): comparison of eukaryotic IC50 values with parent structure
Source text: Prokaryotic and eukaryotic translation inhibition was quantified in coupled transcription/translation assays by using active luciferase detection, performed as described hereinabove. […] In all biological tests, all tested aminoglycosides were in their sulfate salt forms. The concentrations reported refer to that of the free amine form of each aminoglycoside.
as §4, with “software.” for “software. All the experiments were performed in duplicates and analogous results were obtained in three different experiments.”

[6] = tested on: E. coli R477/100; experiment: Antibacterial activity MIC, double-microdilution; assay type: cell-based, Escherichia coli; details: read-out: Antibacterial activity MIC E. coli R477/100
[7] = tested on: nonsense mutation constructs R3X, R245X, Q70X, W1282X, G542X in HEK-293 cells; experiment: Ex vivo stop codon readthrough assay, p2luc constructs transfected to HEK-293 cells; assay type: cell-based, human; details: ex vivo in HEK-293, all the mutations tested, FIGS. 4, 8-10
Description: For the ex vivo readthrough assays, the constructs harboring the R3X, R245X, Q70X and W1282X mutations were transfected to HEK-293 cells with Lipofectamine 2000 (Invitrogen) and addition of the tested compounds was performed 6 hours post transfection. The cells were harvested following 16 hours of incubation with the tested aminoglycosides. Stop codon readthrough was calculated as previously described (see, Grentzmann, G. et al., RNA, 1998, 4, p. 479).
The constructs were transfected into a human embryonic kidney cell line (HEK-293) and incubated with varying concentrations of NB122, NB123, NB54 and the control drug gentamicin, and the results are presented in FIGS. 4A-D.
As described hereinabove, the constructs of p2luc plasmid harboring the R3X, R245X, Q70X and W1282X mutations were transfected to HEK-293 cells using lipofectamine2000 and the tested compounds were added 6 hours post transfection. Cells were harvested after 16 hours incubation and luciferase activity was determined using the dual luciferase reporter assay system (Promega™). Stop codon readthrough was calculated as described previously, and the results are averages of at least three independent experiments.

[8] = tested on: nonsense mutation constructs R3X, R245X, G542X, W1282X, Q70X, R3381X (PCDH15, CFTR, IDUA, Dystrophin); experiment: In vitro stop codon readthrough assay, p2Luc dual luciferase, TNT reticulocyte lysate; assay type: biochemical; details: cell-free, mutations tested; comparison in words from FIGS. 2, 3, 5-7
Source text: DNA fragments derived from PCDH15, CFTR, Dystrophin and IDUA cDNAs, including the tested nonsense mutation or the corresponding wild type (wt) codon, and four to six upstream and downstream flanking codons were created by annealing following pairs of complementary oligonucleotides:
The fragments were inserted in frame into the polylinker of the p2Luc plasmid between either BamHI and SacI (p.R3X and p.R245X), or SalI and SacI (all the rest) restriction sites.
For the in vitro readthrough assays, the obtained plasm ids, with addition of the tested aminoglycosides were transcribed and translated using the TNT Reticulocyte Lysate Quick Coupled Transcription/Translation System. Luciferase activity was determined after 90 minutes of incubation at 30° C., using the Dual Luciferase Reporter Assay System (Promega™).
Initially, the influence of the chiral C5″-methyl group on readthrough potential was evaluated on the pseudo-trisaccharides NB118 and NB119 by using a dual luciferase reporter assay system as described hereinabove. Briefly, DNA fragments were cloned between BamHI and SacI restriction sites of the p2luc vector and the obtained constructs were transcribed and translated using TNT quick coupled transcription/translation system. The amount of the translated products was evaluated using the dual luciferase reporter assay system and used to calculate the suppression level.

[9] = tested on: HEK-293 cells; experiment: Cell toxicity LC50 in HEK-293 cells; assay type: cell-based
Description: as §1, §2, §3

[10] = tested on: HFF (human foreskin fibroblasts) cells; experiment: Cell toxicity LC50 in HFF cells; assay type: cell-based
Description: as §1, §2, §3

[11] = HEK-293 cells, Table 1, read-out: Cell toxicity LC50 HEK-293
[12] = Table 1, read-out: Translation inhibition Prokaryotic system IC50
[13] = Table 3, read-out: Translation Inhibition IC50^Pro
[14] = HFF (human foreskin fibroblast) cells, Table 1, read-out: Cell toxicity LC50 HFF
[15] = Bacillus subtilis, ATCC6633, Table 1, free amine concentration, sulfate salts tested
[16] = Table 1, read-out: Translation inhibition Eukaryotic System IC50
[17] = Table 3, read-out: Translation Inhibition IC50^Euk
[18] = Escherichia coli, R477/100, Table 1
[19] = Table 2, read-out: Translation Inhibition Prokaryotic system IC50
[20] = Table 2, read-out: Translation Inhibition Eukaryotic System IC50

Molecule: C[C@@H](N)[C@H]1O[C@@H](OC2C(O)[C@H](NC(=O)[C@@H](O)CCN)CC(N)[C@H]2O[C@H]2OC(CO)[C@@H](O)C(O)C2N)C(O)C1O (stereo partly drawn) [NB123, 5-O-(5-Amino-5,6-dideoxy-β-D-allofuranosyl)-1-N—[(S)-4-amino-2-hydroxy-butanoyl] paromamine]
CC50 [1, 11]: 13900 ± 1300 µM
IC50 [2, 12]: 0.811 ± 0.059 µM
IC50 [2, 13]: 0.811 ± 0.059 µM
CC50 [3, 14]: 19300 ± 1500 µM
MIC [4, 15]: 33 µM
IC50 [5, 16]: 4.6 ± 0.6 µM
IC50 [5, 17]: 4.6 ± 0.6 µM
Prokaryotic versus Eukaryotic selectivity IC50^Euk/IC50^Pro [5]: 5.7
MIC [6, 18]: 1060 µM (≈ 602 µg/mL)
observed efficacy of aminoglycoside-induced readthrough, order [7]: NB122≥NB123>NB54>gentamicin

Molecule: C[C@H](N)[C@H]1O[C@@H](OC2C(O)[C@H](N)CC(N)[C@H]2O[C@H]2OC(CO)[C@@H](O)C(O)C2N)C(O)C1O (stereo partly drawn) [NB118, 5-O-(5-Amino-5,6-dideoxy-α-L-talofuranosyl)-paromamine]
CC50 [1, 11]: 23500 µM
IC50 [2, 12]: 1.96 ± 0.206 µM
IC50 [2, 13]: 1.96 ± 0.206 µM
CC50 [3, 14]: 21800 ± 500 µM
MIC [4, 15]: 83 µM
IC50 [5, 16]: 16 µM
IC50 [5, 17]: 15.5 ± 1.3 µM
more specific to the eukaryotic ribosome than parent (NB30 or NB54) [5]: 1.9 fold
Prokaryotic versus Eukaryotic selectivity IC50^Euk/IC50^Pro [5]: 7.9
MIC [6, 18]: 2660 µM (≈ 1250 µg/mL)
in vitro readthrough activity (stop codon suppression level) [8]: significantly better than that of the clinical drug gentamicin

Prokaryotic versus Eukaryotic selectivity IC50^Euk/IC50^Pro [5]: about 2
Molecule: NC1C(OCOC2C(N)[C@H](O[C@H]3C(N)C[C@H](N)C(O)C3O)OC(CO)[C@@H]2O)[C@H](O)C(CO)O[C@@H]1O[C@@H]1C(N)C[C@@H](N)C(O)C1O (stereo partly drawn) [NB33, reference compound]
in vitro readthrough activity (stop codon suppression level) [8]: essentially no readthrough activity; also recorded: almost no readthrough activity

Molecule: Gentamicin [reference compound]
CC50 ([9]; Table 1): 2500 ± 300 µM
CC50 ([9]; Table 2): 2650 ± 540 µM
IC50 [2, 12]: 0.028 ± 0.004 µM
IC50 [2, 19]: 0.028 ± 0.004 µM
IC50 [2, 13]: 0.028 ± 0.004 µM
CC50 ([10]; Table 1): 3200 ± 300 µM
CC50 ([10]; Table 2): 3210 ± 310 µM
MIC ([4]; Table 1, free amine concentration, sulfate salts tested): <0.75 µM
MIC ([4]; Table 2): <0.75 µM
more selective to prokaryotic versus eukaryotic ribosome [5]: 2,214 fold
IC50 [5, 16]: 62 ± 9 µM
IC50 [5, 20]: 62 ± 9 µM
IC50 [5, 17]: 62 ± 9 µM
Prokaryotic versus Eukaryotic selectivity IC50^Euk/IC50^Pro [5]: 2,214
MIC ([6]; Table 1): 6 µM
MIC ([6]; Table 2): 6 µM
observed efficacy of aminoglycoside-induced readthrough, order [7]: NB127 NB128>NB84>gentamicin
observed efficacy of aminoglycoside-induced readthrough, order ([7]; listed as gentamicin): NB122≥NB123>NB54>gentamicin; also recorded: NB124>NB125>NB74>gentamicin

Molecule: C[C@@H](N)[C@H]1O[C@@H](OC2C(O)[C@H](N)CC(N)[C@H]2O[C@H]2OC(CO)[C@@H](O)C(O)C2N)C(O)C1O (stereo partly drawn) [NB119, 5-O-(5-Amino-5,6-dideoxy-β-D-allofuranosyl)-paromamine]
CC50 [1, 11]: 19800 ± 400 µM
IC50 [2, 12]: 2.13 ± 0.478 µM
IC50 [2, 13]: 2.13 ± 0.478 µM
CC50 [3, 14]: 20100 ± 600 µM
MIC [4, 15]: 78 µM
IC50 [5, 16]: 28 ± 1.1 µM
IC50 [5, 17]: 28 ± 1.1 µM
Prokaryotic versus Eukaryotic selectivity IC50^Euk/IC50^Pro [5]: 13
MIC [6, 18]: 4990 µM (≈ 2340 µg/mL)
in vitro readthrough activity (stop codon suppression level) [8]: comparatively small

Molecule: C[C@H](N)[C@H]1O[C@@H](OC2C(O)[C@H](N)CC(N)[C@H]2O[C@H]2OC([C@@H](C)O)[C@@H](O)C(O)C2N)C(O)C1O (stereo partly drawn) [NB124, 6′-(R)-Methyl-5-O-(5-amino-5,6-dideoxy-α-L-talofuranosyl)-Paromamine]
CC50 ([1]; HEK-293 cells, Table 2, read-out: Cell toxicity LC50 HEK-293): 5400 ± 450 µM
IC50 [2, 19]: 1.1 ± 0.185 µM
IC50 [2, 13]: 1.1 ± 0.185 µM
CC50 ([3]; HFF (human foreskin fibroblast) cells, Table 2, read-out: Cell toxicity LC50 HFF): 4750 ± 330 µM
MIC ([4]; Bacillus subtilis, ATCC6633, Table 2): 96 µM (≈ 46.3 µg/mL)
IC50 [5, 20]: 1.49 ± 0.08 µM
IC50 [5, 17]: 1.49 ± 0.08 µM
Prokaryotic versus Eukaryotic selectivity IC50^Euk/IC50^Pro [5]: 1.3
MIC ([6]; Escherichia coli, R477/100, Table 2): 768 µM (≈ 371 µg/mL)
in vitro readthrough activity (stop codon suppression level) [8]: improved significantly compared to that of the clinical drug gentamicin
observed efficacy of aminoglycoside-induced readthrough, order [7]: NB124>NB125>NB74>gentamicin

Molecule: NC[C@@H]1O[C@H](O[C@H]2[C@@H](O)[C@H](O[C@@H]3[C@@H](O)[C@H](N)C[C@H](N)[C@H]3O[C@H]3O[C@H](CO)[C@@H](O)[C@H](O)[C@H]3N)O[C@@H]2CO)[C@H](N)[C@@H](O)[C@@H]1O [Paromomycin, reference compound]
CC50 [1]: 4100 ± 500 µM
IC50 [2, 12]: 0.051 ± 0.005 µM
IC50 [2, 13]: 0.051 ± 0.005 µM
CC50 [3]: 3100 ± 400 µM
MIC [4, 15]: 1.2 µM
more selective to prokaryotic versus eukaryotic ribosome [5]: 1,118 fold
IC50 [5, 16]: 57 ± 4 µM
IC50 [5, 17]: 57 ± 4 µM
Prokaryotic versus Eukaryotic selectivity IC50^Euk/IC50^Pro [5]: 1,118
MIC [6, 18]: 22 µM (≈ 13.5 µg/mL)

Molecule: C[C@H](N)[C@H]1O[C@@H](OC2C(O)[C@H](NC(=O)[C@@H](O)CCN)CC(N)[C@H]2O[C@H]2OC(CO)[C@@H](O)C(O)C2N)C(O)C1O (stereo partly drawn) [NB122, 5-O-(5-Amino-5,6-dideoxy-α-L-talofuranosyl)-1-N—[(S)-4-amino-2-hydroxy-butanoyl]paromamine]
CC50 [1, 11]: 10100 µM
IC50 [2, 12]: 2.27 ± 0.196 µM
IC50 [2, 13]: 2.27 ± 0.196 µM
CC50 [3, 14]: 8100 ± 1400 µM
MIC [4, 15]: 33 µM
IC50 [5, 16]: 5.2 µM
IC50 [5, 17]: 5.2 ± 0.7 µM
more specific to the eukaryotic ribosome than parent (NB30 or NB54) [5]: 4.6 fold
Prokaryotic versus Eukaryotic selectivity IC50^Euk/IC50^Pro [5]: 2.3
MIC [6, 18]: 1070 µM (≈ 608 µg/mL)
in vitro readthrough activity (stop codon suppression level) [8]: induced the highest level of readthrough
observed efficacy of aminoglycoside-induced readthrough, order [7]: NB122≥NB123>NB54>gentamicin
